Results published in patent publication US10669235B2, “Indole derivatives and their use as protein kinase inhibitors” (RESPIVERT LIMITED, priority 2016, dated 2020).
Structures can show the parent of a compound that is named as a salt. Where two headings read alike, the source gives them in different places.

Tests used:
PDGFRβ [1] = biological target: T1, PDGFRβ (Homo sapiens (Human), UniProt P09619); assay: PDGFRβ enzyme inhibition (ADP-Glo assay); format: biochemical; details: mean, n = 2 (nintedanib n = 34)
T1 sequence (P09619 33-1106): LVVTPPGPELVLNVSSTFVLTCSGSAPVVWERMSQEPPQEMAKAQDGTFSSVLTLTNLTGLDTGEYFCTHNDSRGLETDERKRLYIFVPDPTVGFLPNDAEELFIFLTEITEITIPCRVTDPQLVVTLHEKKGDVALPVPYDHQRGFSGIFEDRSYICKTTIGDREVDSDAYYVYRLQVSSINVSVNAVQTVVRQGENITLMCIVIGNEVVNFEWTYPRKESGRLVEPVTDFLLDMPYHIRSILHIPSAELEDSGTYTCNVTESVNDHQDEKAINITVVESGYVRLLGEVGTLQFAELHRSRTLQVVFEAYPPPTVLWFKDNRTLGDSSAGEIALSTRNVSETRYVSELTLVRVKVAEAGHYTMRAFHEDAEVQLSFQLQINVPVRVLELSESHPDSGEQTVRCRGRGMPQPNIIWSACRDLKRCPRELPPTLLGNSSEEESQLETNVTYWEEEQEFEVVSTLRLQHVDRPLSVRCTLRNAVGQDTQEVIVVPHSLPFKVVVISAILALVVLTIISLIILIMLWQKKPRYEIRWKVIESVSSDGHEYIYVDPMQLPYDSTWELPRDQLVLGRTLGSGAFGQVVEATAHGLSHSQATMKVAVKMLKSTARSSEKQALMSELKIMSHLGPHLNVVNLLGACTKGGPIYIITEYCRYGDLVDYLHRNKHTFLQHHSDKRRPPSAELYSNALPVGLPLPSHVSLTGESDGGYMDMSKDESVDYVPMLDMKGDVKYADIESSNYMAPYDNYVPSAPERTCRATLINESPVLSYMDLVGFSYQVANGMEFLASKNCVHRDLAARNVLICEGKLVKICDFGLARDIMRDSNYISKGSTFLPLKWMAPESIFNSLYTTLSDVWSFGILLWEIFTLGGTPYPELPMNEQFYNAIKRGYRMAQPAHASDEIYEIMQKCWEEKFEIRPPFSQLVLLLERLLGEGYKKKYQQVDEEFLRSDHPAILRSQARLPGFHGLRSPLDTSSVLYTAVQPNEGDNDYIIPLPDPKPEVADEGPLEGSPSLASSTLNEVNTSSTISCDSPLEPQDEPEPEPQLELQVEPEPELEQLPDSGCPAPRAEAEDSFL

PDGFRβ [2] = biological target: T1, PDGFRβ; assay: PDGF-BB induced phosphorylation of PDGFRβ in fibroblasts (MRC5, HTRF); format: cell-based
PAMPA permeability assay = format: in vitro ADME
[3] = Pharmacokinetic measurements in rats (i.v., i.t., oral); format: in vivo; details: rat; for concentration at 0.1 h: read-out: lung concentration (nM) at time 0.1 h; for concentration at 1.5 h: read-out: lung concentration (nM) at time 1.5 h; for concentration at 6 h: read-out: lung concentration (nM) at time 6 h
MRC5 cells = assay: Cell viability assay in MRC5 cells (MTT)
[4] = male, CD, lung, other: intra-tracheal
[5] = i.t. dose 0.1 (nintedanib 0.42)
[6] = i.v. dose 0.1 (nintedanib 0.42)

Question: Which Ki (PDGFRβ [1]) does the source give for `COC(=O)c1cc2c(cc1C)/C(=C(/Nc1ccc(C(=O)NC3CCN(C)CC3)cc1)c1ccccc1)C(=O)N2` [Example 18, (Z)-Methyl-5-methyl-3-(((4-((1-methylpiperidin-4-yl)carbamoyl)phenyl)amino)(phenyl)methylene)-2-oxoindoline-6-carboxylate, formate] here?
Answer: 7.99 nM

Question: And the IC50 (PDGFRβ [2])?
Answer: 16.8 nM

Question: And the recovery at 5 hr, 10 μM (PAMPA permeability assay; pH 7)?
Answer: 84.5%

Question: And the Papp at 5 h, 10 µM (PAMPA permeability assay; pH 7, 10 μM, 5 hr)?
Answer: 0.00383 ×10⁻⁶ cm/s

Question: What about the concentration at 0.1 h ([3]; male, CD, lung, iv) of the same compound?
Answer: 638 nM

Question: And the concentration at 1.5 h ([3]; male, CD, lung, iv)?
Answer: 306 nM

Question: And the concentration at 6 h ([3]; male, CD, lung, iv)?
Answer: 201 nM

Question: What about the concentration at 0.1 h [3, 4] of the same compound?
Answer: 6530 nM

Question: And the concentration at 1.5 h [3, 4]?
Answer: 5990 nM

Question: What about the concentration at 6 h [3, 4] of the same compound?
Answer: 2350 nM

Question: And the concentration at 24 h ([3]; male, CD, lung, other: intra-tracheal, read-out: lung concentration (nM) at time 24 h)?
Answer: 4520 nM

Question: What about the half-life ([3]; male, CD, plasma, iv) of the same compound?
Answer: 5.1 h

Question: And the “i.t. BAV (%)” value [3, 5]?
Answer: 39%

Question: And the “BAL % administered dose at time 0.1 h” value [3, 5]?
Answer: 6.7%

Question: What about the “BAL % administered dose at time 1.5 h” value [3, 5] of the same compound?
Answer: 2.2%

Question: What about the “BAL % administered dose at time 6 h” value [3, 5] of the same compound?
Answer: 0.4%

Question: And the “BAL % administered dose at time 24 h” value [3, 5]?
Answer: 0.3%

Question: What about the “BAL % administered dose at time 0.1 h” value [3, 6] of the same compound?
Answer: 0.13%

Question: What about the “BAL % administered dose at time 1.5 h” value [3, 6] of the same compound?
Answer: 0%

Question: What about the “BAL % administered dose at time 6 h” value [3, 6] of the same compound?
Answer: BQL

Question: What about the “BAL % administered dose at time 24 h” value [3, 6] of the same compound?
Answer: BQL

Question: And the “Cell viability at 100 nM (%)” value (MRC5 cells; 100 nM)?
Answer: 98.2%

Question: And the “Cell viability at 300 nM (%)” value (MRC5 cells; 300 nM)?
Answer: 97.3%

Question: What about the “Cell viability at 1000 nM (%)” value (MRC5 cells; 1000 nM) of the same compound?
Answer: 91.8%
